The results in this text go back to paper PMC12254355 (Nature Communications, 2025).

Ends that are not written are not given here.

The test system of one series is human red blood cells. The conditions noted are these: pH 7.4.
Another series relates to A. baumannii ATCC 19606. The conditions noted are these: ATCC 19606, 24 h.
A further series concerns E. coli ATCC 11775. Particulars: ATCC 11775, 24 h.
Another series has as its system P. aeruginosa PA14. Particulars: PA14, 24 h.
For series [1], the system named is E. faecium ATCC 700221 - VRE. Particulars: ATCC 700221, 24 h.
The subject of another series is P. aeruginosa PAO1. Particulars: PAO1, 24 h.
Another series relates to E. coli AIC221. Particulars: AIC221, 24 h.
A further series relates to HEK293T cells. Particulars: for CC50 vs HEK293T cells (source data of Figure 4a): 24 h.
The next series has as its system K. pneumoniae ATCC 13883. Particulars: ATCC 13883, 24 h.

Turning to RKFKWGKLFSTAKKLYKKGKKLSK [UniprotKB-16], the HC50 in the series with human red blood cells was 2082.0. The “Minimal Inhibitory Concentration, A. baumannii ATCC 19606 (-)” value in the series on A. baumannii ATCC 19606 turned out to be 32 µmol/L. Moreover, the “Minimal Inhibitory Concentration, E. coli ATCC 11775 (-)” value in the series on E. coli ATCC 11775 was found to be 8 µmol/L. For the same sequence, the “Minimal Inhibitory Concentration, P. aeruginosa PA14 (-)” value in the series on P. aeruginosa PA14 stood at 4 µmol/L. The “Minimal Inhibitory Concentration, E. faecium ATCC 700221 - VRE (+)” value (shortened to “Minimal Inhibitory Concentration … (+)”) in series [1] is 32 µmol/L. For the same sequence, the “Minimal Inhibitory Concentration, P. aeruginosa PAO1 (-)” value in the series with P. aeruginosa PAO1 amounted to 4 µmol/L. The “Minimal Inhibitory Concentration, E. coli AIC221 (-)” value in the series with E. coli AIC221 worked out at 4 µmol/L. Further, in the series with HEK293T cells, the SIcytotoxicity was determined as 5.9 and the “CC50 vs HEK293T cells (source data of Figure 4a)” value was 23.72 µM.
In the series on human red blood cells, KWGKLFSAGKKLLKKAKKL [Arachnoserver-4] displayed an HC50 of 1.085e+083. Further, the “Minimal Inhibitory Concentration, A. baumannii ATCC 19606 (-)” value in the series on A. baumannii ATCC 19606 was determined as 64 µmol/L. Besides, the “Minimal Inhibitory Concentration, E. coli ATCC 11775 (-)” value in the series with E. coli ATCC 11775 worked out at 32 µmol/L. Also, the “Minimal Inhibitory Concentration, P. aeruginosa PA14 (-)” value with P. aeruginosa PA14 is 16 µmol/L. In addition, the “Minimal Inhibitory Concentration … (+)” value in series [1] was found to be 16 µmol/L. Further, the “Minimal Inhibitory Concentration, P. aeruginosa PAO1 (-)” value in the series on P. aeruginosa PAO1 came to 8 µmol/L. Also, the “Minimal Inhibitory Concentration, E. coli AIC221 (-)” value with E. coli AIC221 stood at 16 µmol/L. Moreover, in the series on HEK293T cells, the “CC50 vs HEK293T cells” value turned out to be 20 µM, the SIcytotoxicity worked out at 2.4 and the “CC50 vs HEK293T cells (source data of Figure 4a)” value turned out to be 19.57 µM.
Consider “KRFIRNLRSNLYQKIIKSTKSLLDLREKI [Arachnoserver-17]”, for which the HC50 in the series on human red blood cells came to 280.5. Also, the “Minimal Inhibitory Concentration, E. coli ATCC 11775 (-)” value in the series on E. coli ATCC 11775 turned out to be 64 µmol/L. For the same sequence, in the series with K. pneumoniae ATCC 13883, the “Minimal Inhibitory Concentration, K. pneumoniae ATCC 13883 (-)” value is 4 µmol/L. Further, in the series on E. coli AIC221, the “Minimal Inhibitory Concentration, E. coli AIC221 (-)” value came out at 8 µmol/L. Moreover, in the series on HEK293T cells, the SIcytotoxicity is given as 4.1 and the “CC50 vs HEK293T cells (source data of Figure 4a)” value is 16.47 µM.
With “RRVKRFKKFFMKLKKSVKKRVMKFFK [UniprotKB-5]”, in the series on human red blood cells, the HC50 amounted to 103.8. The “Minimal Inhibitory Concentration, A. baumannii ATCC 19606 (-)” value in the series with A. baumannii ATCC 19606 amounted to 64 µmol/L. Besides, the “Minimal Inhibitory Concentration, E. coli ATCC 11775 (-)” value in the series with E. coli ATCC 11775 was determined as 32 µmol/L. The “Minimal Inhibitory Concentration, P. aeruginosa PA14 (-)” value with P. aeruginosa PA14 came to 8 µmol/L. Also, the “Minimal Inhibitory Concentration … (+)” value in [1] is 8 µmol/L. For the same sequence, the “Minimal Inhibitory Concentration, P. aeruginosa PAO1 (-)” value in the series with P. aeruginosa PAO1 was found to be 8 µmol/L. Further, in the series with E. coli AIC221, the “Minimal Inhibitory Concentration, E. coli AIC221 (-)” value was found to be 32 µmol/L. Besides, in the series with HEK293T cells, the “CC50 vs HEK293T cells” value was determined as 9 µM, the SIcytotoxicity turned out to be 1.1 and the “CC50 vs HEK293T cells (source data of Figure 4a)” value stood at 8.885 µM.
In the series on human red blood cells, “VNSFKIGGFIKKLWRSKLAKKLRAK [UniprotKB-19]” came in with an HC50 of 625.9. The “Minimal Inhibitory Concentration, A. baumannii ATCC 19606 (-)” value with A. baumannii ATCC 19606 was found to be 64 µmol/L. Also, the “Minimal Inhibitory Concentration, E. coli ATCC 11775 (-)” value in the series on E. coli ATCC 11775 turned out to be 64 µmol/L. The “Minimal Inhibitory Concentration, P. aeruginosa PA14 (-)” value in the series on P. aeruginosa PA14 turned out to be 16 µmol/L. The “Minimal Inhibitory Concentration … (+)” value in series [1] stood at 4 µmol/L. For the same sequence, the “Minimal Inhibitory Concentration, P. aeruginosa PAO1 (-)” value in the series on P. aeruginosa PAO1 turned out to be 8 µmol/L. In the series with E. coli AIC221, the “Minimal Inhibitory Concentration, E. coli AIC221 (-)” value is 16 µmol/L. Also, in the series on HEK293T cells, the SIcytotoxicity is reported as 10.2 and the “CC50 vs HEK293T cells (source data of Figure 4a)” value amounted to 40.64 µM.
In turn, FIKKLWRSKLAKKLRAKGRELLK [UniprotKB-17] returned an HC50 with human red blood cells of 4.224e+042. For the same sequence, in the series with A. baumannii ATCC 19606, the “Minimal Inhibitory Concentration, A. baumannii ATCC 19606 (-)” value turned out to be 32 µmol/L. For the same sequence, the “Minimal Inhibitory Concentration, E. coli ATCC 11775 (-)” value in the series with E. coli ATCC 11775 amounted to 16 µmol/L. The “Minimal Inhibitory Concentration, P. aeruginosa PA14 (-)” value in the series on P. aeruginosa PA14 came to 16 µmol/L. The “Minimal Inhibitory Concentration … (+)” value in [1] is 16 µmol/L. In the series with P. aeruginosa PAO1, the “Minimal Inhibitory Concentration, P. aeruginosa PAO1 (-)” value is 8 µmol/L. The “Minimal Inhibitory Concentration, E. coli AIC221 (-)” value in the series with E. coli AIC221 was 16 µmol/L. Also, in the series on HEK293T cells, the SIcytotoxicity is recorded as 3.9 and the “CC50 vs HEK293T cells (source data of Figure 4a)” value is 30.97 µM.
As to “KFSVFSKILRSIAKVFKGVGKVRK [Arachnoserver-27]”, the HC50 in the series on human red blood cells came to 24.2. In the series on E. coli ATCC 11775, the “Minimal Inhibitory Concentration, E. coli ATCC 11775 (-)” value came to 32 µmol/L. In addition, the “Minimal Inhibitory Concentration, K. pneumoniae ATCC 13883 (-)” value with K. pneumoniae ATCC 13883 came to 4 µmol/L. For the same sequence, the “Minimal Inhibitory Concentration … (+)” value in series [1] worked out at 8 µmol/L. In addition, in the series with E. coli AIC221, the “Minimal Inhibitory Concentration, E. coli AIC221 (-)” value stood at 8 µmol/L. Moreover, in the series on HEK293T cells, the SIcytotoxicity was 2.0 and the “CC50 vs HEK293T cells (source data of Figure 4a)” value is 7.976 µM.
In the case of “RKFKWGSFKKILSAGKKLFKKAKKLSK [Arachnoserver-2]”, in the series with human red blood cells, the HC50 is recorded as 108.1. The “Minimal Inhibitory Concentration, A. baumannii ATCC 19606 (-)” value in the series on A. baumannii ATCC 19606 turned out to be 32 µmol/L. Also, the “Minimal Inhibitory Concentration, E. coli ATCC 11775 (-)” value in the series with E. coli ATCC 11775 was found to be 8 µmol/L. The “Minimal Inhibitory Concentration, P. aeruginosa PA14 (-)” value with P. aeruginosa PA14 turned out to be 4 µmol/L. In addition, the “Minimal Inhibitory Concentration … (+)” value in [1] came out at 8 µmol/L. Also, the “Minimal Inhibitory Concentration, P. aeruginosa PAO1 (-)” value in the series on P. aeruginosa PAO1 was found to be 4 µmol/L. In the series on E. coli AIC221, the “Minimal Inhibitory Concentration, E. coli AIC221 (-)” value is 1 µmol/L. In the series with HEK293T cells, the “CC50 vs HEK293T cells” value worked out at 10 µM, the SIcytotoxicity worked out at 9.9 and the “CC50 vs HEK293T cells (source data of Figure 4a)” value was determined as 9.929 µM.
In the series on human red blood cells, “RKFKWGSFKKILSAGKKLFKKAKKLSKNKNFKKALK [Arachnoserver-6]” had an HC50 of 12.1. Moreover, in the series with A. baumannii ATCC 19606, the “Minimal Inhibitory Concentration, A. baumannii ATCC 19606 (-)” value was 64 µmol/L. Besides, in the series on E. coli ATCC 11775, the “Minimal Inhibitory Concentration, E. coli ATCC 11775 (-)” value worked out at 32 µmol/L. Further, in the series with P. aeruginosa PA14, the “Minimal Inhibitory Concentration, P. aeruginosa PA14 (-)” value came out at 4 µmol/L. For the same sequence, the “Minimal Inhibitory Concentration … (+)” value in [1] worked out at 8 µmol/L. The “Minimal Inhibitory Concentration, P. aeruginosa PAO1 (-)” value in the series on P. aeruginosa PAO1 came out at 4 µmol/L. Further, in the series on E. coli AIC221, the “Minimal Inhibitory Concentration, E. coli AIC221 (-)” value stood at 4 µmol/L. Further, in the series on HEK293T cells, the “CC50 vs HEK293T cells” value worked out at 5 µM, the SIcytotoxicity was 1.3 and the “CC50 vs HEK293T cells (source data of Figure 4a)” value is 5.173 µM.
In the series with human red blood cells, RFGSFLKKVWKSKLAKKL [UniprotKB-20] came in with an HC50 of 18147.0. For the same sequence, the “Minimal Inhibitory Concentration, A. baumannii ATCC 19606 (-)” value with A. baumannii ATCC 19606 was 64 µmol/L. For the same sequence, the “Minimal Inhibitory Concentration, E. coli ATCC 11775 (-)” value with E. coli ATCC 11775 is 32 µmol/L. The “Minimal Inhibitory Concentration, P. aeruginosa PA14 (-)” value in the series with P. aeruginosa PA14 came out at 16 µmol/L. Also, the “Minimal Inhibitory Concentration … (+)” value in [1] amounted to 8 µmol/L. The “Minimal Inhibitory Concentration, P. aeruginosa PAO1 (-)” value in the series with P. aeruginosa PAO1 is 8 µmol/L. Moreover, the “Minimal Inhibitory Concentration, E. coli AIC221 (-)” value in the series on E. coli AIC221 was found to be 16 µmol/L. In the series with HEK293T cells, the SIcytotoxicity turned out to be 6.6 and the “CC50 vs HEK293T cells (source data of Figure 4a)” value stood at 52.53 µM.
In the series on human red blood cells, “RKFKWGKLFSTAKKLYKKGKKLSKNKNFKKALK [UniprotKB-12]” returned an HC50 of 604.3. For the same sequence, the “Minimal Inhibitory Concentration, A. baumannii ATCC 19606 (-)” value with A. baumannii ATCC 19606 stood at 64 µmol/L. Besides, the “Minimal Inhibitory Concentration, E. coli ATCC 11775 (-)” value in the series with E. coli ATCC 11775 came out at 32 µmol/L. Further, the “Minimal Inhibitory Concentration, P. aeruginosa PA14 (-)” value in the series with P. aeruginosa PA14 came out at 4 µmol/L. Besides, the “Minimal Inhibitory Concentration … (+)” value in [1] stood at 32 µmol/L. Also, the “Minimal Inhibitory Concentration, P. aeruginosa PAO1 (-)” value in the series on P. aeruginosa PAO1 was found to be 4 µmol/L. Moreover, in the series on E. coli AIC221, the “Minimal Inhibitory Concentration, E. coli AIC221 (-)” value is 2 µmol/L. Moreover, in the series on HEK293T cells, the SIcytotoxicity was found to be 11.9 and the “CC50 vs HEK293T cells (source data of Figure 4a)” value worked out at 23.71 µM.
